The target of the assay is SIK2 (Homo sapiens, UniProt Q9H0K1). As to the kind of experiment: SIK2 Enzymatic Assay High Version 2 (High ATP). Type of assay: biochemical. In outline: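 At room temperature, enzyme (6 nM, 2× final) was preincubated with compound for 30 min, then 6 mM ATP and 400 μM HDAC5tide (both 2× final) were added for 2 h. ADP formed was measured by ADP-Glo Max (2 h reagent, 1 h detection) using luminescence.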

Where [1] appears, read: enzyme 6 nM, 6 mM ATP and 400 μM HDAC5tide (each 2× final concentration), 30 minutes pre-incubation, 2 hours, ADP-Glo Max luminescence, read-out: SIK2 high ATP IC50 (μM) (Test Example 2).

Each structure is given as a SMILES string. Read-outs that look alike come from different tables or passages of the source.

Chain of SIK2 (Q9H0K1 whole entry, species assumed): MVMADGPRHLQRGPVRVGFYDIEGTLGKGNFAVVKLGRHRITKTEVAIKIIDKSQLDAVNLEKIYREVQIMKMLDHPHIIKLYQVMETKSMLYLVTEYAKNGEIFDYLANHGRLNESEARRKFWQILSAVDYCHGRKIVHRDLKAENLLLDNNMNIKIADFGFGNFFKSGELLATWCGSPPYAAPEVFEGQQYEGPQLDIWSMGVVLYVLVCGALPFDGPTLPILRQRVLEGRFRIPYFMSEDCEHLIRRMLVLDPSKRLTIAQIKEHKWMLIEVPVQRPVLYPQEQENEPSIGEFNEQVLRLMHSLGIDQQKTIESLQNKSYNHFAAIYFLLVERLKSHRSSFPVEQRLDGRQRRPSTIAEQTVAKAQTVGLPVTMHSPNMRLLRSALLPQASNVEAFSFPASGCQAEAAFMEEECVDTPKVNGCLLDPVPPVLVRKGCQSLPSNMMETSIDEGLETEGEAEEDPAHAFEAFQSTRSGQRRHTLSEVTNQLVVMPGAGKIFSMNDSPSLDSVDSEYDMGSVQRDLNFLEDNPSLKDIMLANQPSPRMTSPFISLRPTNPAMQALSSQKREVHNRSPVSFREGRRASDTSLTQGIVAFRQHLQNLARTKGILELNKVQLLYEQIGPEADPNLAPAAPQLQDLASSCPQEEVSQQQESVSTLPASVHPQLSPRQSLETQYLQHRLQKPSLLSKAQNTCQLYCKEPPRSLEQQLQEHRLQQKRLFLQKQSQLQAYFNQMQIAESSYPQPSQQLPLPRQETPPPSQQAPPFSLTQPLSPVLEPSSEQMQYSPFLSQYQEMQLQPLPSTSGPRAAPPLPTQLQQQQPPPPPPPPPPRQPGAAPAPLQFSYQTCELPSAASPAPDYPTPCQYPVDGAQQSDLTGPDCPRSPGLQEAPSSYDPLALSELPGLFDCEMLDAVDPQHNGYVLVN

As to `Cc1cc(-c2ccn3nc(Nc4cnn(C)c4)cc3c2)c(O[C@H]2C[C@H]3COC[C@@H](C2)N3)cn1` [Example 123, 7-endo-5-[2-methyl-5-[[(1S,5R)-3-oxa-9-azabicyclo[3.3.1]nonan-7-yl]oxy]-4-pyridyl]-N-(1-methylpyrazol-4-yl)pyrazolo[1,5-a]pyridin-2-amine], half-maximal inhibition (IC50) was put at 0.00094 µM.
Same read-out and setting: the figure for `Cc1cc(-c2ccn3nc(Nc4cnn(C)c4)cc3c2)c(O[C@H]2C[C@H]3COC[C@@H](C2)N3C)cn1` [Example 124] is 0.00124 µM; for `Cc1cc(-c2ccn3nc(Nc4ccn(C)n4)cc3c2)c(O[C@H]2C[C@H]3COC[C@@H](C2)N3)cn1` [Example 125, endo-5-(5-(((1R,5S,7s)-3-oxa-9-azabicyclo[3.3.1]nonan-7-yl)oxy)-2-methylpyridin-4-yl)-N-(1-methyl-1H-pyrazol-3-yl)pyrazolo[1,5-a]pyridin-2-amine] it is < 0.000847 µM.
`Cc1cc(-c2ccn3nc(Nc4ccc(F)cn4)cc3c2)c(O[C@H]2C[C@H]3COC[C@@H](C2)N3C)cn1` [Example 126]: the IC50 (as a rule, the point on the concentration scale where inhibition reaches its midpoint) was < 0.000847 µM.
On to `Cc1cc(-c2ccn3nc(Nc4ccc(F)cn4)cc3c2)c(O[C@H]2C[C@H]3COC[C@@H](C2)N3)cn1` [Example 127, 5-(5-(((1R,5S,7s)-3-oxa-9-azabicyclo[3.3.1]nonan-7-yl)oxy)-2-methylpyridin-4-yl)-N-(5-fluoropyridin-2-yl)pyrazolo[1,5-a]pyridin-2-amine], for which the 50% inhibitory concentration (IC50) was < 0.000847 µM.
For the compound `Cc1cc(-c2ccn3nc(Nc4cnn(C)c4)cc3c2)c(OC[C@@H]2CNCCO2)cn1` [Example 128, 5-[2-methyl-5-[[(2S)-morpholin-2-yl]methoxy]-4-pyridyl]-N-(1-methylpyrazol-4-yl)pyrazolo[1,5-a]pyridin-2-amine], the IC50 under setting [1] is 0.0249 µM.
For `Cc1cc(-c2ccn3nc(Nc4ccccn4)cc3c2)c(OC[C@@H]2CNCCO2)cn1` [Example 130, 5-[2-methyl-5-[[(2S)-morpholin-2-yl]methoxy]-4-pyridyl]-N-(2-pyridyl)pyrazolo[1,5-a]pyridin-2-amine], half-maximal inhibition (IC50) was put at 0.00429 µM.
For `Cc1cc(-c2ccn3nc(Nc4cccnc4)cc3c2)c(OC[C@@H]2CNCCO2)cn1` [Example 131, 5-[2-methyl-5-[[(2S)-morpholin-2-yl]methoxy]-4-pyridyl]-N-(3-pyridyl)pyrazolo[1,5-a]pyridin-2-amine], under setting [1], the IC50 came out at 0.0524 µM.
Still for that read-out and setting: the figure for `Cc1cc(-c2ccn3nc(Nc4ccncn4)cc3c2)c(OC[C@@H]2CNCCO2)cn1` [Example 132, 5-[2-methyl-5-[[(2S)-morpholin-2-yl]methoxy]-4-pyridyl]-N-pyrimidin-4-yl-pyrazolo[1,5-a]pyridin-2-amine] is 0.00951 µM.
Turning to `Cc1cc(-c2ccn3nc(Nc4cnn(C(C)C)c4)cc3c2)c(OC[C@@H]2CNCCO2)cn1` [Example 133, N-(1-isopropylpyrazol-4-yl)-5-[2-methyl-5-[[(2S)-morpholin-2-yl]methoxy]-4-pyridyl]pyrazolo[1,5-a]pyridin-2-amine], under setting [1], the IC50 is 0.00845 µM.
With `Cc1cc(-c2ccn3nc(Nc4cccnn4)cc3c2)c(OC[C@@H]2CNCCO2)cn1` [Example 134, 5-[2-methyl-5-[[(2S)-morpholin-2-yl]methoxy]-4-pyridyl]-N-pyridazin-3-yl-pyrazolo[1,5-a]pyridin-2-amine], the IC50 under setting [1] came out at 0.0128 µM.
Same read-out and setting: the figure for `Cc1cc(-c2ccn3nc(Nc4ccn(C(C)C)n4)cc3c2)c(OC[C@@H]2CNCCO2)cn1` [Example 135, N-(1-isopropylpyrazol-3-yl)-5-[2-methyl-5-[[(2S)-morpholin-2-yl]methoxy]-4-pyridyl]pyrazolo[1,5-a]pyridin-2-amine] is 0.00986 µM.
Same read-out and setting: under `Cc1cc(-c2ccn3nc(NC(=O)C4CC4)cc3c2)c(O[C@H]2CC[C@](C)(O)CC2)cn1` [Example 151, trans-N-(5-(5-(((1r,4r)-4-hydroxy-4-methylcyclohexyl)oxy)-2-methylpyridin-4-yl)pyrazolo[1,5-a]pyridin-2-yl)cyclopropanecarboxamide] stands 0.00378 µM; under `Cc1cc(-c2ccn3nc(NC(=O)C4CC4)cc3c2)c(OCC2(NC3CC3)CCC2)cn1` [Example 157, N-[5-[5-[[1-(cyclopropylamino)cyclobutyl]methoxy]-2-methyl-4-pyridyl]pyrazolo[1,5-a]pyridin-2-yl]cyclopropanecarboxamide], 0.0708 µM.
Take `CCN1[C@@H]2COC[C@H]1C[C@@H](Oc1cnc(C)cc1-c1ccn3nc(NC(=O)C4CC4)cc3c1)C2` [Example 161, 7-endo-N-(5-(5-(((1R,5S,7s)-9-ethyl-3-oxa-9-azabicyclo[3.3.1]nonan-7-yl)oxy)-2-methylpyridin-4-yl)pyrazolo[1,5-a]pyridin-2-yl)cyclopropanecarboxamide]: the IC50 is < 0.000847 µM.
Consider `Cc1cc(-c2ccn3nc(Nc4ccn(C)n4)cc3c2)c(OCC2(N)CC(F)(F)C2)cn1` [Example 162, 5-[5-[(1-amino-3,3-difluoro-cyclobutyl)methoxy]-2-methyl-4-pyridyl]-N-(1-methylpyrazol-3-yl)pyrazolo[1,5-a]pyridin-2-amine], for which, under setting [1], the IC50 amounted to 0.0196 µM.
The same measure, in the same setting: the figure for `Cc1cc(-c2ccn3nc(Nc4cnn(C)c4)cc3c2)c(O[C@H]2CC[C@](C)(O)CC2)cn1` [Example 163, (1r,4r)-1-methyl-4-((6-methyl-4-(2-((1-methyl-1H-pyrazol-4-yl)amino)pyrazolo[1,5-a]pyridin-5-yl)pyridin-3-yl)oxy)cyclohexan-1-ol] is 0.00795 µM.
Turning to `Cc1cc(-c2ccn3nc(NC(=O)C4CC4)cc3c2)c(O[C@H]2[C@@H]3CN(C)[C@H]2CO3)cn1` [Example 164, N-(5-(2-methyl-5-(((1S,4S,7R)-5-methyl-2-oxa-5-azabicyclo[2.2.1]heptan-7-yl)oxy)pyridin-4-yl)pyrazolo[1,5-a]pyridin-2-yl)cyclopropanecarboxamide], it took 0.218 µM to reach half-maximal inhibition (IC50).
Still for that read-out and setting: the figure for `Cc1cc(-c2ccn3nc(NC(=O)C4CC4)cc3c2)c(O[C@@H]2[C@@H]3CO[C@H]2CN3)cn1` [Example 165, N-(5-(5-(((1S,4S,7R)-2-oxa-5-azabicyclo[2.2.1]heptan-7-yl)oxy)-2-methylpyridin-4-yl)pyrazolo[1,5-a]pyridin-2-yl)cyclopropanecarboxamide] is 0.00823 µM; for `CNC(=O)c1ccnc(Nc2cc3cc(-c4cc(C)ncc4O[C@H]4C[C@H]5COC[C@@H](C4)N5)ccn3n2)c1` [Example 172, 2-((5-(5-(((1R,5S,7s)-3-oxa-9-azabicyclo[3.3.1]nonan-7-yl)oxy)-2-methylpyridin-4-yl)pyrazolo[1,5-a]pyridin-2-yl)amino)-N-methylisonicotinamide] it is 0.000876 µM.
Still for that read-out and setting: the figure for `CNC(=O)c1ccc(Nc2cc3cc(-c4cc(C)ncc4O[C@H]4C[C@H]5COC[C@@H](C4)N5)ccn3n2)nc1` [Example 173, 6-((5-(5-(((1R,5S,7s)-3-oxa-9-azabicyclo[3.3.1]nonan-7-yl)oxy)-2-methylpyridin-4-yl)pyrazolo[1,5-a]pyridin-2-yl)amino)-N-methylnicotinamide] is < 0.000847 µM; for `Cc1cc(-c2ccn3nc(Nc4cc(C(F)(F)F)nn4C)cc3c2)c(O[C@H]2C[C@H]3COC[C@@H](C2)N3C)cn1` [Example 174, N-(1-methyl-3-(trifluoromethyl)-1H-pyrazol-5-yl)-5-(2-methyl-5-(((1R,5S,7s)-9-methyl-3-oxa-9-azabicyclo[3.3.1]nonan-7-yl)oxy)pyridin-4-yl)pyrazolo[1,5-a]pyridin-2-amine] it is 0.108 µM.
Regarding `Cc1cc(-c2ccn3nc(NC(=O)C4CC4)cc3c2)c(OC2CCC(=O)CC2)cn1` [Example 186, N-[5-[2-methyl-5-(4-oxocyclohexoxy)-4-pyridyl]pyrazolo[1,5-a]pyridin-2-yl]cyclopropanecarboxamide], the IC50 under setting [1] amounted to 0.0164 µM.
On the same count and under the same terms, under `CC#Cc1cc(-c2ccn3nc(Nc4ccn(C)n4)cc3c2)c(O[C@H]2CC[C@H](O)CC2)cn1` [Example 187, trans-4-[[4-[2-[(1-methylpyrazol-3-yl)amino]pyrazolo[1,5-a]pyridin-5-yl]-6-prop-1-ynyl-3-pyridyl]oxy]cyclohexanol] stands 0.00407 µM; under `Cc1cc(-c2ccn3nc(NC(=O)C4CC4)cc3c2)c(O[C@H]2CC[C@@](O)(C(F)(F)F)CC2)cn1` [Example 191, N-(5-(5-(((1r,4r)-4-hydroxy-4-(trifluoromethyl)cyclohexyl)oxy)-2-methylpyridin-4-yl)pyrazolo[1,5-a]pyridin-2-yl)cyclopropanecarboxamide], 0.00251 µM; under `Cc1cc(-c2ccn3nc(NC(=O)C4CC4)cc3c2)c(O[C@H]2CC[C@@](O)(c3ccccc3)CC2)cn1` [Example 192, N-(5-(5-(((1r,1r)-4-hydroxy-4-phenylcyclohexyl)oxy)-2-methylpyridin-4-yl)pyrazolo[1,5-a]pyridin-2-yl)cyclopropanecarboxamide], 0.0612 µM.
On the same count and under the same terms, under `Cc1cc(-c2ccn3nc(NC(=O)C4CC4)cc3c2)c(OC2CCC(O)(C(C)C)CC2)cn1` (stereo not drawn) [Example 196] stands 0.00247 µM; under `Cc1cc(-c2ccn3nc(Nc4cc(C)nc(C)n4)cc3c2)c(O[C@H]2CC[C@H](O)CC2)cn1` [Example 198, trans-4-[[4-[2-[(2,6-dimethylpyrimidin-4-yl)amino]pyrazolo[1,5-a]pyridin-5-yl]-6-methyl-3-pyridyl]oxy]cyclohexanol], 0.00877 µM.
Same read-out and setting: the figure for `Cc1cc(-c2ccn3nc(NC(=O)C4CC4)cc3c2)c(OC2CCC(=NO)CC2)cn1` (stereo not drawn) [Example 199, N-[5-[5-(4-hydroxyiminocyclohexoxy)-2-methyl-4-pyridyl]pyrazolo[1,5-a]pyridin-2-yl]cyclopropanecarboxamide] is 0.0502 µM; for `Cc1cc(-c2ccn3nc(Nc4cc(C)nc(C)n4)cc3c2)c(OCC(C)(C)O)cn1` [Example 200, 1-[[4-[2-[(2,6-dimethylpyrimidin-4-yl)amino]pyrazolo[1,5-a]pyridin-5-yl]-6-methyl-3-pyridyl]oxy]-2-methyl-propan-2-ol] it is 0.0445 µM.

The record behind these values is patent US20240158392A1 (Janssen Biotech, Inc., priority 2021, published 2024).
